Results taken from paper PMC6272497, “Biological Activities and Cytotoxicity of Diterpenes from Copaifera spp. Oleoresins” (Molecules, 2015).
Entries after “also recorded” stand apart in the source; their conditions may differ. Values belong to the compound of their own block, whether it stands above or below them.

Experiments:
NIHOVCAR (ovary) = assay: Alamar Blue assay, tumoral cells NIHOVCAR; format: cell-based; conditions: 72 h, 20 µmol/L; listed as Kaurenoic Acid
Experimental: (§1) We also investigated possible cytotoxic effects on tumor cell lines (Table 1). To characterize this activity, the compounds were tested in different tumor cell lines, among which were AGP-01 (gastric), HCT116 (colorectal), MCF07 (breast cancer), NIHOVCAR (ovary), SKAMELL-4 (melanoma), and SF-295 (human glioblastoma), each at a concentration of 20 µM.
(§2) Cytotoxicity assay. The cytotoxicity of diterpene compounds to the murine macrophage cell line J774 was determined by the Alamar Blue method as described by Nakayama et al.. Briefly, adherent cells (5 × 10^3 cells/well) were grown in 96-well tissue culture plates and exposed to substances (2.5 to 10 µg/mL) for 24, 48 and 72 h. After incubation, the Alamar Blue solution (10 μL of 0.4% Alamar Blue (resazurin) in PBS) was added and the cells were incubated for 3 h at 37 °C. Fluorescence was measured (excitation at 545 nm and emission at 595 nm) and expressed as a percentage of the cells in the control after background fluorescence was subtracted. As a positive control of cell death, doxorubicin (5 µg/mL) was used. The assays were performed in triplicate. For the assays with tumoral cells, an Alamar Blue assay was performed using the following cell lines: AGP01—gastric; HCT116—colorectal; MCF07—breast cancer; NIHOVCAR—ovary; SKAMELL4—melanoma; SF295—human glioblastoma, which were seeded in 96-well plates (0.5 × 10^4 cells per well) and incubated in a CO2 atmosphere at 5% and 37 °C. After 24 h, diterpenes at 20 µM were added to each well and incubated for 72 h. Doxorubicin (10 μM) was used as a positive control and DMSO (0.1%) as a negative control. Before the end of the incubation, 10 µL of Alamar Blue (0.02%) was added to each well. The fluorescent signal was monitored using a multiplate reader using a 530–560 nm excitation wavelength and 590 nm emission wavelength. The fluorescent signal generated from the assay was proportional to the number of live cells in the sample, according to the manufacturer.

AGP01 (gastric) = assay: Alamar Blue assay, tumoral cells AGP01; format: cell-based; conditions: 72 h, 20 µmol/L; listed as Kaurenoic Acid
Experimental: as §1, §2

[1] = test system: nitric oxide production in J774 macrophages stimulated with LPS; assay: NO production assay (Griess) in LPS-stimulated J774 cells; format: cell-based, murine; conditions: Mus musculus; J774, LPS 1 µg/mL, 24 h; read-out: inhibition of NO production IC50
Experimental: Our study evaluated the effects of diterpene compounds on the production of nitric oxide in the murine macrophage cell line J774 stimulated with LPS (Figure 2D). NO^• levels were measured by the Greiss method. […] Similar results for kaurenoic acid were observed by Choi et al. […] Figure 2 Effect of the isolated diterpenic acids on nitric oxide (NO^•) and cytokine production in lipopolysaccharide-stimulated J774 cells. (A) TNF-α, (B) IL-6 and (C) IL-10 and (D) NO^•. […] The nitrite and cytokines values are the mean ± S.D. from three independent experiments. Indomethacin was used as a standard. Statistical analysis was performed using the Holm-Sidak multiple comparison. * p < 0.05 when compared to control stimulated with LPS. (1) 3-hydroxy-copalic acid, (2) kaurenoic acid, (3) 3-acetoxy-copalic acid, (4) kolavic acid 15-methyl ester, (5) copalic acid and (6) […]. NO^• production by J774 cells was assayed by measuring the accumulation of nitrite in the culture medium using a Griess reaction. Briefly, after incubation of the cells (1 × 10^6 cells/mL) with diterpene compounds in different concentrations from 6.25 to 100 μM, cells were incubated for 24 h with LPS (1 μg/mL), at 37 °C in a 5% CO2 incubator. Nitric oxide was measured as NO2 in culture supernatant by reaction with Griess reagent. Absorbance of the reaction product was determined at 560 nm using a microplate reader (DTX 800, Beckman). Sodium nitrite was used as a standard to calculate nitrite concentrations.

[2] = test system: SF295 (human glioblastoma); assay: Alamar Blue assay, tumoral cells SF295; format: cell-based; conditions: 72 h, 20 µmol/L
Experimental: as §1, §2

SKMELL28 (melanoma) = assay: Alamar Blue assay, tumoral cells SKMELL28; format: cell-based; conditions: 72 h, 20 µmol/L
Experimental: as §1, §2

MCF -7 (breast cancer) = test system: MCF -7 (breast cancer); design: method as in PMID 12165328; conditions: single concentration of 78 µM; cited from earlier work
IL-10 production = IL-10 production in LPS-stimulated J774 cells (CBA); format: cell-based, murine
Experimental: (§3) Figure 2 Effect of the isolated diterpenic acids on nitric oxide (NO^•) and cytokine production in lipopolysaccharide-stimulated J774 cells. (A) TNF-α, (B) IL-6 and (C) IL-10 and (D) NO^•. Production of NO^• was assayed in culture supernatants of macrophages stimulated with LPS (1 µg/mL) for 24 h in the presence of the four compounds (25 µg/mL to cytokines and 50 µg/mL to NO^•). The nitrite and cytokines values are the mean ± S.D. from three independent experiments. Indomethacin was used as a standard. Statistical analysis was performed using the Holm-Sidak multiple comparison. * p < 0.05 when compared to control stimulated with LPS. (1) 3-hydroxy-copalic acid, (2) kaurenoic acid, (3) 3-acetoxy-copalic acid, (4) kolavic acid 15-methyl ester, (5) copalic acid and (6) hardwickiic acid.
Macrophage cells (1 × 10^6 cells/mL) were incubated with different concentrations of diterpene compounds (12.5 to 50 μM), and then stimulated with 1 μg/mL of LPS. The culture supernatants were collected after 24 h of LPS stimulation. The levels of cytokines in the culture media were measured by flow cytometry (BD Cytometric Bead Array—CBA—Mouse Inflammation kit) according to the manufacturer’s instructions.

MCF7 (breast cancer) = assay: Alamar Blue assay, tumoral cells MCF7; format: cell-based; conditions: 72 h, 20 µmol/L
Experimental: as §1, §2

[3] = test system: HCT -8 cells (colon cancer); design: method as in PMID 12165328; conditions: single concentration of 78 µM; cited from earlier work
erythrocyte = assay: Hemolysis test
Experimental: The assay for the characterization of hemolytic activity aimed to evaluate the potential of diterpenes on lysis of the cell membrane.
Blood was collected in heparinized-tubes from Wistar rats, and washed three times with saline solution (NaCl 0.85% + CaCl2 10 mM) by centrifugation at 700 g for 10 min. The pellet of erythrocyte was re-suspended in saline solution for preparation of erythrocyte suspension −2% (SE). A total of 100 µL of the samples of diluted diterpenes was added to 96-well microplates in different concentrations (6.25 to 800 µM); 100 µL of SE was then added; and the samples were incubated for 60 min at 37 °C under constant agitation. The release of hemoglobin was determined after centrifugation (700 g for 10 min) by photometric analysis of the supernatant at 540 nm. Complete hemolysis was achieved using 0.2% Triton X-100 yielding the 100% control value.

IL-6 production = IL-6 production in LPS-stimulated J774 cells (CBA); format: cell-based, murine; conditions: for inhibition of IL-6 production (words): LPS-stimulated J774
Experimental: as §3, with “Production of NO^• was assayed in culture supernatants of macrophages stimulated with LPS (1 µg/mL) for 24 h in the presence of the four compounds (25 µg/mL to cytokines and 50 µg/mL to NO^•).” left out
[…] The culture supernatants were collected after 24 h of LPS stimulation. The levels of cytokines in the culture media were measured by flow cytometry (BD Cytometric Bead Array—CBA—Mouse Inflammation kit) according to the manufacturer’s instructions.

CEM (leukemia) = test system: CEM (leukemia); design: method as in PMID 12165328; conditions: single concentration of 78 µM; cited from earlier work
HCT-116 (colorectal) = assay: Alamar Blue assay, tumoral cells HCT-116; format: cell-based; conditions: 72 h, 20 µmol/L; listed as Kaurenoic Acid
Experimental: as §1, §2

[4] = test system: TNF-α production and expression; design: method as in PMID 18313400; conditions: 1 to 20 mg/mL; kaurenoic acid from Helianthus annuus L.; cited from earlier work
[5] = test system: NO production in RAW 264.7 macrophage stimulated by LPS; design: method as in PMID 16280009; conditions: RAW 264.7, LPS; kaurenoic acid from Aralia continentalis; read-out: inhibition of NO production IC50; cited from earlier work
[6] = test system: TNF-α production in RAW 264.7 murine macrophages; design: method as in PMID 18267111; conditions: 20 µM to 50 µM; cited from earlier work
[7] = test system: MCP-1 production in RAW 264.7 murine macrophages; design: method as in PMID 18267111; conditions: 20 µM to 50 µM; cited from earlier work

IC50 [1]: 61.2 ± 4.2 µM
SMILES: C=C1C[C@@]23CC[C@H]4[C@@](C)(CCC[C@@]4(C)C(=O)O)[C@@H]2CC[C@@H]1C3 [kaurenoic acid]
Viability inhibition (%) NIHOVCAR (NIHOVCAR (ovary)): ≤0.01% | Viability inhibition (%) AGP01 (AGP01 (gastric)): 28.1 ± 4.3% | Viability inhibition (%) SF295 ([2]; listed as Kaurenoic Acid): 28.0 ± 6.5% | Viability inhibition (%) SF295 ([2]; listed as kaurenoic): around 20% | Viability inhibition (%) SKMELL28 (SKMELL28 (melanoma)): ≤0.01% | inhibition of MCF-7 tumor cells (MCF -7 (breast cancer)): 45% | IL-10 production (words) (IL-10 production; 12.5 µM and 25 µM): induced the production of IL-10 | IL-10 production (words) (IL-10 production; 50 µM): this induction decreased | IL-10 production (words) (IL-10 production; LPS-stimulated J774, 12.5 to 50 µM): increased IL-10 production; also recorded: induced IL-10 production; also recorded: induced production of interleukin-10 | Viability inhibition (%) MCF7 (MCF7 (breast cancer)): ≤0.01% | inhibition of HCT-8 tumor cells [3]: 45% | hemolytic activity (erythrocyte; 100 µM (abstract)): 61.7% | hemolytic activity (erythrocyte; 100 mM (so in the source)): 61.7% | inhibition of IL-6 production (words) (IL-6 production; listed as Kaurenoic): inhibited the production of IL-6 | inhibition of IL-6 production (words) (IL-6 production; listed as kaurenoic): inhibited IL-6 production | inhibition at 25 µM (IL-6 production; Mus musculus, J774, 25 µM (abstract)): 11.2% | inhibition of CEM tumor cells (CEM (leukemia)): 95% | Viability inhibition (%) HCT-116 (HCT-116 (colorectal)): 0.27 ± 4.3% | inhibition of TNF-α production and expression [4]: inhibitory activity on the production and expression of TNF-α | IC50 [5]: 51.7 ± 2.4 µM

SMILES: CC(C)c1ccc2c(c1)CC[C@H]1[C@](C)(C(=O)O)CCC[C@]21C [Dehydroabietic acid]
suppression of TNF-α production [6]: suppresses production | suppression of MCP-1 production [7]: suppresses production
